Where a name gives a salt, the structure may show the parent alone.

For data set [1] the following is noted: cited from earlier work.
In data set [2] the test system is Drosophila KCNT1 mutant line R928C. Nature of the data set: Bang-sensitive behavioral seizure assay, Drosophila KCNT1 mutant line R928C. The format is in vivo, Drosophila melanogaster. The settings on record: drug in food. The source says: The Drosophila melanogaster lines carrying the WT human KCNT1 transgene (NM_020822_3) or KCNT1 mutant G288S, R398Q or R928C transgene placed downstream of the yeast UAS promoter, have been described previously.[11] WT or mutant human UAS‐KCNT1 flies were crossed to flies expressing the GAL4 transcriptional activator under the control of the GAD1 promoter (GABAergic driver, Bloomington stock number 51630 P2) to drive expression of KCNT1 in GABAergic neurons, involved in neuronal inhibition.[11]
The bang‐sensitive behavioral assay (also known as the banging assay) was used to test for the presence of a seizure phenotype in Drosophila.[11], [30] Experiments were performed and scored, as previously described,[11] with a minimum of 50 Drosophila tested for each genotype and drug concentration.
Four drugs were selected for in vivo analysis to determine their effects on the seizure phenotypes in transgenic Drosophila lines with human mutant KCNT1 channels. […]
In all experiments, experimenters were not blinded to variants or treatments, nor were samples randomly assigned to groups. Sample sizes were not calculated in advance and no data were excluded from the analysis. Data were analyzed using GraphPad Prism 9 software (San Diego, CA, USA). […] All data passed normality and lognormality Shapiro–Wilk tests, determined by GraphPad Prism 9. […]

For a further data set, the system named is hERG potassium channels. The settings on record: read-out: IC50 for inhibition of hERG potassium channels; cited from earlier work.

On to `O=C(OCCN1CCN(c2cccc(C(F)(F)F)c2)CC1)c1ccccc1Nc1ccnc2cc(C(F)(F)F)ccc12` [antrafenine], for which the mean plasma concentration in data set [1] (900 mg/day (approximately 12 mg/kg for a 75 kg adult), ref Berry et al, 1983) is 202 nM. For the same molecule, the tolerability in humans entry in data set [1] (900 mg/day) is “well tolerated”. In data set [1] (patients with osteoarthritis), the “mean circulating plasma levels” value was 0.3 µM. Also, the “reduction of the seizure phenotype” value in data set [2] is 25%.

In the case of `Cc1c(O)cccc1C(=O)N[C@@H](CSc1ccccc1)[C@H](O)CN1C[C@H]2CCCC[C@H]2C[C@H]1C(=O)NC(C)(C)C` [nelfinavir mesylate], the IC50 in the data set with hERG potassium channels is 11.5 µM. Further, the “reduction of the seizure phenotype” value in data set [2] came to 50%.

A word on the IC50: it is the concentration needed to halve the response being measured.
